# Positions count from the first letter of the chain named.
# Legend:
# STING = molecular target: T1, STING (Mus musculus, UniProt Q3TBT3); assay: IFN-beta luciferase reporter in HEK293T cells transfected with STING, alone or with a cyclic dinucleotide synthase; format: cell-based; parameters: expressed in transfected cells; host or cells: HEK293T; details: HEK293T transfected with mmSTING, 16 h
# T1 sequence (Q3TBT3 1-378): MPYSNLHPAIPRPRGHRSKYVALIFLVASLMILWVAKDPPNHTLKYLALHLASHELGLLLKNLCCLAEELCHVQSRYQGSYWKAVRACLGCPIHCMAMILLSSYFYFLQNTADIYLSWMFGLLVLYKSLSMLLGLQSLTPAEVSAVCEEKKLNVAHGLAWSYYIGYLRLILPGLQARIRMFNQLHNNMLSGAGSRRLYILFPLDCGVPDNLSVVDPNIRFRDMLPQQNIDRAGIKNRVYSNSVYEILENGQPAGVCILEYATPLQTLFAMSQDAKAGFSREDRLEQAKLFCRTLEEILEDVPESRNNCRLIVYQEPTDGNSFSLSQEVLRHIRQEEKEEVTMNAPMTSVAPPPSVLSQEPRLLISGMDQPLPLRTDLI
# Procedure: (§1) Reporter activity was measured 16 h after compound treatment. A nonlinear regression analysis was performed. […] Cytokine levels were normalized to DMSO-treated control cells. […] Nuclei were stained with DAPI. […] Depicted genes were measured by RT-qPCR. […] 16 h later Luciferase activity was measured. […] Flag-STING was immunoprecipitated and analysed by autoradiography.
# HEK293T cells expressing murine STING with an N-terminal mCherry-tag ^28 were transfected using GeneJuice (Millipore) with a construct encoding for cyclic di-GMP synthase in conjunction with an IFN-• firefly luciferase reporter plasmid. 3 h after transfection cells were seeded in […] (Corning) coated with library compounds. For each compounds, a 40 nl volume was selected to obtain a concentration of 10 µM in the assay plates. The amount of DMSO in each well was normalised to 0.1%. After overnight treatment, cells were lysed in lysis buffer (25 mM Tris-phosphate (pH 7.8), 2 mM DTT, 2 mM 1,2-diaminocyclohexane-N,N,N',N'-tetraacetic acid, 10% glycerol, 1% Triton® X-100) for 20 min followed by the addition of firefly luciferase. Reporter activity was measured using a Tecan Infinite plate reader. The screen was performed using on ∼ 20.000 compounds from a chemically diverse compound collection available at the BSF core facility at EPFL.
# In these cells, transient transfection of vectors encoding for cyclic di-GMP synthase (cdG-Syn) and an IFN-• reporter leads to robust induction of firefly luciferase activity. We used this system to perform a high-throughput chemical screen with a library of ∼ 20.000 small molecule compounds (Fig. 6b). To increase the selectivity of candidate compounds against the STING pathway, hits from the primary screen were counter-screened for their effect on RIG-I-driven activation of the IFN-• reporter. […] To further validate the two small molecules, we treated wild-type HEK293T cells with C-178 and C-176, in which STING was either expressed alone or in conjunction with cdG-Syn. […] We next conducted a limited structure-activity relationship (SAR) analysis. Since both C-178 and C-176 share a characteristic nitrofuran moiety, we prepared analogues of C-176/8 in which this structural motif was substituted (Fig. 1c).
# hsSTING = molecular target: T2, hsSTING (Homo sapiens, UniProt Q86WV6); assay: Gel-based analysis of C-176-22 labelling in HEK293T cells expressing human STING; format: binding; details: HEK293T cells that expressed human STING
# T2 construct: expressed in transfected cells; host or cells: HEK293T
# T2 sequence (Q86WV6 whole entry): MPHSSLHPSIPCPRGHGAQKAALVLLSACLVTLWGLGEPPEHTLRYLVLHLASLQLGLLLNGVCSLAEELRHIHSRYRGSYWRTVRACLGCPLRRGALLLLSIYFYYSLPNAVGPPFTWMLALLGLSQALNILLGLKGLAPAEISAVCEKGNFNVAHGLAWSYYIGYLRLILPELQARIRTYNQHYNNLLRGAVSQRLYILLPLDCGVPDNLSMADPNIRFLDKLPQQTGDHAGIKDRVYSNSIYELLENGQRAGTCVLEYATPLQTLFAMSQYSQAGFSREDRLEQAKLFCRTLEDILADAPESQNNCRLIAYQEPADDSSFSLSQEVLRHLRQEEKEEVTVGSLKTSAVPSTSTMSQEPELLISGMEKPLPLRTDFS
# Procedure: as §1
# HEK293T cells expressing Flag-STING were incubated with C-176-22 (0.25 µM) in serum free media, collected in PBSs and lysed by repetitive freezing and thawing. […] In-gel fluorescence was visualized using Fusion FX (Vilber Lourmat) and analysed by Fusion capt advance acquisition software.
# We next sought to elucidate the molecular details of the interaction between C-178 and the TM part of STING. […] Having verified that C-176-22 is still active (Fig. 7), HEK293T cells expressing STING were exposed to C-176-22, lysed, coupled to a tetramethylrhodamine (TAMRA-)azide tag and C-176-22-modified proteins were visualized using in-gel fluorescence scanning. […]
# mmSTING [1] = assay: Gel-based analysis of C-176-22 labelling (click chemistry, in-gel fluorescence) in HEK293T cells; format: binding, mouse; details: for labelling of STING mutant: 0.25 µM; for labelling of other protein targets / proteome-wide selectivity: whole cell lysate, C-176-22 0.25µM
# Procedure: as §1
# (§2) HEK293T cells expressing Flag-STING were incubated with C-176-22 (0.25 µM) in serum free media, collected in PBSs and lysed by repetitive freezing and thawing. 43 µl of lysed cells were treated with freshly prepared "click reagent" mixture containing tris(benzyltriazolylmethyl)amine (TBTA) (3 µl/sample, 3 mM in 1:4 DMSO:t-ButOH), tetramethylrhodamine (TAMRA) azide (2 µl/sample, 1.25 mM in DMSO), and freshly prepared CuSO4 (1 µl/sample) and tris-(2-carboxyethyl)phosphine hydrochloride (TCEP) (1µl/sample) and incubated at room temperature for 1 h. The reaction was quenched by addition of reducing sample buffer. In-gel fluorescence was visualized using Fusion FX (Vilber Lourmat) and analysed by Fusion capt advance acquisition software.
# (§3) We next sought to elucidate the molecular details of the interaction between C-178 and the TM part of STING. Our SAR studies highlighted the importance of the nitrofuran motif for the activity of the discovered inhibitors. Given the strong electrophilic potential of this group, we suspected that C-178 might react with a TM residue generating a covalent interaction. […] To further test the hypothesis of covalent engagement of STING, we synthesized a derivative of C-176-22, which bears an alkyne group amenable for copper-catalyzed azide alkyne cycloaddition (Click Chemistry) and performed gel-based profiling studies (Fig. 3d). Having verified that C-176-22 is still active (Fig. 7), HEK293T cells expressing STING were exposed to C-176-22, lysed, coupled to a tetramethylrhodamine (TAMRA-)azide tag and C-176-22-modified proteins were visualized using in-gel fluorescence scanning. HEK293T cells without STING served as a control for assessing non-specific protein labelling. […] Based on the observed mass shift, we postulate a nitrobenzyl rearrangement-like reaction to generate covalent bonding between C-178 and STING (see below). […] We next sought to identify the residue through which C-178 achieves binding to STING. Among the naturally occurring amino acids, cysteine residues are well-known targets of electrophilic small molecules. […] In addition, binding to and inhibition of STING are two separable functions of C-178.
# mmSTING [2] = molecular target: T3, mmSTING (Mus musculus, UniProt Q3TBT3, V27A); assay: as above; format: binding; details: STING V27A; 0.25 µM
# T3 construct: expressed in transfected cells; host or cells: HEK293T (lentiviral transduction, induced overnight)
# T3 sequence (Q3TBT3 1-378 V27A): T1 sequence (Q3TBT3 1-378) with V27A
# Procedure: as §1, §2, §3
# mmSTING [3] = molecular target: T4, mmSTING (Mus musculus, UniProt Q3TBT3); assay: as above; format: binding; details: HEK293T expressing STING
# T4 construct: expressed in transfected cells; host or cells: HEK293T (lentiviral transduction, induced overnight)
# T4 sequence (Q3TBT3 1-378): T1 sequence (Q3TBT3 1-378)
# Procedure: as §1, §2, §3
smiles,measurement,setting,value
C#Cc1ccc(NC(=O)c2ccc([N+](=O)[O-])o2)cc1 [C-176-22],"inhibitory activity, IFN-• luciferase reporter",STING,still active
same,"inhibitory activity, IFN-• luciferase reporter",STING; listed as C176L,inhibitory active
same,labelling of human STING,hsSTING,"hardly detectable, if at all"
same,labelling band in cells without STING,mmSTING [1]; HEK293T cells that lacked STING expression,not detectable
same,labelling of STING mutant,mmSTING [1]; cysteine-to-alanine or cysteine-to-serine mutation at position 91,completely abolished
same,labelling of STING mutant,mmSTING [1]; mutated C88,did not influence
same,labelling of other protein targets / proteome-wide selectivity,mmSTING [1],negligible labelling
same,labelling of other protein targets / proteome-wide selectivity,mmSTING [1]; listed as C176L,highly specifically labels mmSTING
same,labelling of STING mutant,mmSTING [2],efficiently interacted
same,"labelling of STING, in-gel fluorescence signal (37 kDa)",mmSTING [3],"marked, dose-dependent signal"

# From patent EP3502102A1, “STING INHIBITORS” (ECOLE POLYTECHNIQUE FEDERALE DE LAUSANNE (EPFL), priority 2017, dated 2019)
